Measurements reported in patent US4594319A, “Protein kinase enzyme AUT-PK 500 and a radioimmunoassay for detection of neoplasia” (The University of Tennessee Research Corp., priority 1984, dated 1986).

Key:
[1] = tested on: AUT-PK 500; assay: Protein kinase assay: autophosphorylation of AUT-PK 500 (32P incorporation from [gamma-32P] ATP); format: biochemical, rat; settings: for ^32 P Incorporated (autophosphorylation of AUT-PK 500): 1 microgram enzyme; for concentration giving peak activity of the enzyme / maximal activation, relative to that obtained by Mn^2+ or Mg^2+ / EC50: divalent cations; for EC50: read-out: concentration resulting in half-maximal stimulation of AUT-PK 500; for influence of sulfhydryl group inhibitors on AUT-PK 500 activity: see Table IV; for effect on the AUT-PK 500 activity: monovalent cations, concentrations of up to 100 mM; for effect on the autophosphorylation of AUT-PK 500: filter assay or radioautography of SDS gel
Protocol: ATP into an appropriate substrate. […] ATP (400-600 cpm/pmol) and an appropriate amount of the enzyme. The reaction was incubated at 37° C. for one minute or as specified under experimental conditions, and was terminated by the addition of 2 ml of ice-cold 10% trichloroacetic acid followed by the addition of 500 micrograms of bovine serum albumin. The precipitate was immediately filtered on a GF/C filter and washed three times with 2 ml of ice-cold 10% trichloroacetic acid. The filter was dried and counted in a cocktail of Omnifluor in toluene. […]
Autophosphorylation of AUT-PK 500 was also analyzed by one-dimensional SDS-polyacrylamide gel electrophoresis. […] ATP. […] The phosphorylated sample was applied to 6% acrylamide containing 0.1% SDS and 0.3% Bis. Electrophoresis was conducted in the presence of Tris-glycine buffer, pH 8.3.

[2] = tested on: AUT-PK 500; assay: Phosphorylation of exogenous substrates by AUT-PK 500; format: biochemical, rat
Protocol: Protein kinase activity was measured by the incorporation of ^32 P from [gamma-^32 P] ATP into an appropriate substrate. The 250-microliter reaction mixture contained 20 mM Tris-HCl, pH 7.5, 10 mM Mg^2+, 2.5×10^-6 M [gamma-^32 P] ATP (400-600 cpm/pmol) and an appropriate amount of the enzyme. The reaction was incubated at 37° C. for one minute or as specified under experimental conditions, and was terminated by the addition of 2 ml of ice-cold 10% trichloroacetic acid followed by the addition of 500 micrograms of bovine serum albumin. The precipitate was immediately filtered on a GF/C filter and washed three times with 2 ml of ice-cold 10% trichloroacetic acid. The filter was dried and counted in a cocktail of Omnifluor in toluene.
Most of the known cyclic nucleotide-dependent or -independent protein kinases catalyze the phosphorylation of one or more of the commonly used exogenous substrates such as histone, casein, protamine, and phosvitin. […] In order to confirm this conclusion, AUT-PK 500 was incubated with [gamma-^32 P] ATP and histone in the presence or absence of cyclic AMP, then subjected to SDS-polyacrylamide gel electrophoresis and analyzed by radioautography.

[3] = Table IV, -SH group inhibitor 5 mM, enzyme alone 18,500 cpm
[4] = Table II, addition 10 micrograms, enzyme alone 16,000 cpm
[5] = concentrations of up to 200 micrograms/ml

[Ca+2] [Ca^2+]
^32 P Incorporated (autophosphorylation of AUT-PK 500) ([1]; Table III, 0.4 mM, enzyme alone 18,500 cpm): 17,000 cpm | effect on AUT-PK 500 activity ([1]; calcium or calcium-calmodulin, Table III): not affected | concentration giving peak activity of the enzyme [1]: 20 mM | maximal activation, relative to that obtained by Mn^2+ or Mg^2+ [1]: 60%

[Co+2] [Co^2+]
concentration giving peak activity of the enzyme [1]: 5 mM | maximal activation, relative to that obtained by Mn^2+ or Mg^2+ [1]: 40% | EC50 [1]: 2500 µM

Nc1nc2c(ncn2[C@@H]2O[C@@H]3COP(=O)(O)O[C@H]3[C@H]2O)c(=O)[nH]1 [Cyclic GMP]
dependence of AUT-PK 500 activity on cyclic nucleotides / blockage by heat-stable inhibitor [1]: independent | ^32 P Incorporated (autophosphorylation of AUT-PK 500) ([1]; Table II, cyclic nucleotide 1 microM, enzyme alone 16,000 cpm): 16,300 cpm

O=C(O)CN(CCOCCOCCN(CC(=O)O)CC(=O)O)CC(=O)O [EGTA, 1,2-di(2-aminoethoxy)ethane-N,N,N',N'-tetraacetic acid]
inhibition of AUT-PK 500 activity ([1]; EGTA (Table III, 0.8 mM), explained by partial chelation of Mg^2+): 23.2% | ^32 P Incorporated (autophosphorylation of AUT-PK 500) ([1]; Table III, 0.8 mM, enzyme alone 18,500 cpm): 14,200 cpm

Nc1nc2c(ncn2[C@@H]2O[C@H](COP(=O)(O)OP(=O)(O)OP(=O)(O)O)[C@@H](O)[C@H]2O)c(=O)[nH]1 [GTP]
effect on the ATP-dependent rate of self-phosphorylation [1]: did not affect | incorporation of radioactivity with [gamma-^32 P] GTP as phosphate donor ([1]; GTP in place of ATP): no incorporation of radioactivity was observed

NC(=O)CI [Iodoacetamide]
^32 P Incorporated (autophosphorylation of AUT-PK 500) [1, 3]: 18,600 cpm

[Mg+2] [Mg^2+]
concentration giving peak activity of the enzyme [1]: 10 mM | EC50 [1]: 2500 µM

[Mn+2] [Mn^2+]
concentration giving peak activity of the enzyme [1]: 5 mM | EC50 [1]: 2500 µM

CCN1C(=O)C=CC1=O [N--Ethylmaleimide, N-ethylmaleimide]
^32 P Incorporated (autophosphorylation of AUT-PK 500) [1, 3]: 18,000 cpm | influence of sulfhydryl group inhibitors on AUT-PK 500 activity [1]: did not influence

[Sr+2] [Sr^2+]
concentration giving peak activity of the enzyme [1]: 50 mM | maximal activation, relative to that obtained by Mn^2+ or Mg^2+ [1]: of the same order | EC50 [1]: 2500 µM

O=S(=O)(O)c1cc[c]([Hg][Cl])cc1 [p-chloromercuriphenylsulfonic acid]
^32 P Incorporated (autophosphorylation of AUT-PK 500) [1, 3]: 18,300 cpm | influence of sulfhydryl group inhibitors on AUT-PK 500 activity [1]: did not influence

[K+] [potassium]
effect on the AUT-PK 500 activity [1]: no significant effect

NCCCCN [putrescine]
effect on the autophosphorylation of AUT-PK 500 ([1]; polyamines each at 1 mM): No effect

[Na+] [sodium]
effect on the AUT-PK 500 activity [1]: no significant effect

NCCCCNCCCN [spermidine]
effect on the autophosphorylation of AUT-PK 500 ([1]; polyamines each at 1 mM): No effect

NCCCNCCCCNCCCN [spermine]
effect on the autophosphorylation of AUT-PK 500 ([1]; polyamines each at 1 mM): No effect

Calmodulin
^32 P Incorporated (autophosphorylation of AUT-PK 500) ([1]; Table III, 100 microgram/ml, enzyme alone 18,500 cpm): 17,400 cpm

Casein
phosphorylation of the substrate by AUT-PK 500 [2]: did not phosphorylate | effect of exogenous substrate proteins on the phosphorylation of AUT-PK 500 ([1]; Table II): None of these proteins affected the phosphorylation | ^32 P Incorporated (autophosphorylation of AUT-PK 500) [1, 4]: 10,000 cpm

Protamine
effect of exogenous substrate proteins on the phosphorylation of AUT-PK 500 ([1]; Table II): None of these proteins affected the phosphorylation | ^32 P Incorporated (autophosphorylation of AUT-PK 500) [1, 4]: 12,000 cpm

lithium
effect on the AUT-PK 500 activity [1]: no significant effect

polyarginine
effect on the autophosphorylation of AUT-PK 500 [1, 5]: No effect

polylysine
effect on the autophosphorylation of AUT-PK 500 [1, 5]: No effect
